From ChEMBL document CHEMBL1201862, “PubChem BioAssay data set” (2004) come the findings set out here.

As a reminder, the EC50 is the concentration at which the effect is half-maximal. In general, IC50 refers to the concentration that inhibits the measured activity by half. For orientation: AC50 means the midpoint of the concentration-response curve, whichever way the signal moves.

Calls of active or inactive are those of the source. Bounds are passed on as bounds.

For experiment [1], the target named is Beta-galactosidase (Escherichia coli, UniProt Q8VNN2). Kind of experiment: PubChem AID 485352. Type of experiment: functional.
Experiment [2] deals with Type-1 angiotensin II receptor (Homo sapiens, UniProt P30556). Kind of experiment: antagonism of angiotensin II type 1 receptor – cell-based, uHTS hits, selectivity assay for APJ receptor antagonist project, dose response (AID 463214).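 Also: antagonist potency against angiotensin II stimulated AT1 response.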 The experiment is classed as functional.
Experiment [3] can be described thus: viability of PTEN-deleted HCT116 cells – cell-based, HCT116 PTEN knockout, dose response (AID 1047).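 Also: HCT116 colon tumor cells with PTEN knocked out; cells exposed to compound for 60 hours before readout.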 The experiment is classed as functional.
Experiment [4] is described as follows: viability of HCT116 lacking mutant beta-catenin – cell-based, human colon tumor, dose response (AID 1045).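 Also: HCT116 colon tumor cells with beta catenin knocked out; cells exposed to compound for 60 hours.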 Type of experiment: functional.
In experiment [5] the target is T1, RNA-binding protein pos-1 (Caenorhabditis elegans, UniProt G5EF15).
T1 sequence (G5EF15 whole entry): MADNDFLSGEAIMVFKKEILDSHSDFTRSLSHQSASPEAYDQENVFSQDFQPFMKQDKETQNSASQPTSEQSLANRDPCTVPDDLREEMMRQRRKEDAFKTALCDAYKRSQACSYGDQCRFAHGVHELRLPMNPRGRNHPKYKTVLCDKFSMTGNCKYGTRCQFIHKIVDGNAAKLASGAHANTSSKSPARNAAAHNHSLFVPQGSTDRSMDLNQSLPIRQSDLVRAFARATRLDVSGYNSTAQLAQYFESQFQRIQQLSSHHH
In words: disruptors of C. elegans POS-1 RNA interaction – biochemical, fluorescence polarization, dose response (AID 1964).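 Also: purified POS-1 fused to maltose binding protein made in E. coli; potency of compounds blocking POS-1 binding to fluorescent RNA.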 Background: In fluorescence polarisation assays a small probe gives low polarisation when free and higher when bound to something large.

The target in experiment [6] is T2, Zinc finger protein mex-5 (Caenorhabditis elegans, UniProt Q9XUB2).
T2 sequence (Q9XUB2 whole entry): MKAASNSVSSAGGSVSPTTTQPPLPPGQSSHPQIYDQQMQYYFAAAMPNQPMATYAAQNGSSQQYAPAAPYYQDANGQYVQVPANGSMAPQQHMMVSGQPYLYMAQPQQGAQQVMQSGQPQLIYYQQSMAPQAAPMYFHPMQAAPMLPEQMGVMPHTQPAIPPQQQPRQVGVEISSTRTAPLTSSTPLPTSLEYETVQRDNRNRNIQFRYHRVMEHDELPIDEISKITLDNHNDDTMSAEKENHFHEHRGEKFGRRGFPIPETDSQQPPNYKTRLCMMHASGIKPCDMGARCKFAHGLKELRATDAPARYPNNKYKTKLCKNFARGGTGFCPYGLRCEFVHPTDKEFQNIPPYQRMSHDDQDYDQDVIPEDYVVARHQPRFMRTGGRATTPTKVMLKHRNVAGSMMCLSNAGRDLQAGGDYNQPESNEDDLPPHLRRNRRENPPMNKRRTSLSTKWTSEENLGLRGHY
In words: potency of MEX-5 RNA-binding blockers – biochemical, C. elegans, fluorescence polarization, dose response (AID 1960).

The target in experiment [7] is Keap1/Nrf2 (Homo sapiens, UniProt Q14145). Kind of experiment: disruptors of Keap1 binding to Nrf2 peptide – biochemical, fluorescence polarization, cherry-picked samples, dose response (AID 588683).
The target in experiment [8] is T3, Leucine aminopeptidase (Plasmodium falciparum 3D7, UniProt Q8IL11).
T3 sequence (Q8IL11 whole entry): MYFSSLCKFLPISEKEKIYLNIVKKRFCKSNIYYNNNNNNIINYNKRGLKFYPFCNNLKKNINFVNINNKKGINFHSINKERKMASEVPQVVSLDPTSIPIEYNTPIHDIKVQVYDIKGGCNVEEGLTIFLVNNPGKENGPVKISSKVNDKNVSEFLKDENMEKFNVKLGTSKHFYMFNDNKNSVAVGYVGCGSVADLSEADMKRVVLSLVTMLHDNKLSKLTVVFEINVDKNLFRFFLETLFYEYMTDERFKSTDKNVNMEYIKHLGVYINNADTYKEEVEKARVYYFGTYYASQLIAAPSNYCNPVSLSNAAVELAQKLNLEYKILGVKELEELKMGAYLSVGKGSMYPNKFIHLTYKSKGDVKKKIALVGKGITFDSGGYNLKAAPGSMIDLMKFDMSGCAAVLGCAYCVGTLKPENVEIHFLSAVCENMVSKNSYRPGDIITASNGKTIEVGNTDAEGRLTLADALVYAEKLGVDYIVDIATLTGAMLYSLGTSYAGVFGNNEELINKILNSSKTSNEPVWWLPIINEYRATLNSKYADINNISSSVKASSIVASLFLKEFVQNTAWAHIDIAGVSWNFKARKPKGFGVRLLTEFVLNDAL
Kind of experiment: P. falciparum M17LAP inhibitors, primary screen, biochemical, fluorogenic H-Leu-NHMec substrate, 1536-well (AID 1619). Type of experiment: functional.

Experiment [9] addresses T4, E3 ubiquitin-protein ligase XIAP (Homo sapiens, UniProt P98170). In words: Counter Screen using XIAP-Bir3 for Chemical Antagonists of Bir1/2 domains of IAP-family anti-apoptotic proteins. [Related pubchem assays (depositor defined):AID1018, AID1449, AID1514, AID1638, AID1749, AID1750, AID488957, AID488963]. A general note: The purpose of a counterscreen is to sort out artefacts and off-target activity.

The target in experiment [10] is T4, E3 ubiquitin-protein ligase XIAP. In words: small molecules displacing peptide from XIAP – biochemical, IAP family, fluorescence polarization (AID 1018). Type of experiment: functional.
The target in experiment [11] is FAD-linked sulfhydryl oxidase ALR (Homo sapiens, UniProt P55789). Kind of experiment: ALR-catalysed DTT oxidation blockers – biochemical, H2O2 detection, luminescence, cherry-pick, dose response (AID 493248).
The target in experiment [12] is T5, Mu-type opioid receptor (Homo sapiens, UniProt P35372). In words: mu opioid receptor activators, image-based, SAR follow-up (AID 2352). The experiment is classed as functional.
Experiment [13] deals with T6, Delta-type opioid receptor (Homo sapiens, UniProt P41143). In words: DOR agonists, SAR follow-up, image-based (AID 2370). The experiment is classed as functional.
The target in experiment [14] is T7, Kappa-type opioid receptor (Homo sapiens, UniProt P41145). In words: kappa opioid receptor blockers, image-based, SAR follow-up (AID 2348). Type of experiment: functional.
Experiment [15] addresses T5, Mu-type opioid receptor. Kind of experiment: mu opioid receptor blockers – image-based, SAR follow-up (AID 2420).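 Also: compounds added before stimulation of receptor with agonist DAMGO.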 Type of experiment: functional.
Experiment [16] has as its target T7, Kappa-type opioid receptor. In words: kappa opioid receptor activation potency – imaging, image-based, SAR follow-up (AID 2359). The experiment is classed as functional.
Experiment [17] deals with T6, Delta-type opioid receptor. In words: delta opioid receptor blockers – image-based, SAR follow-up (AID 2357). The experiment is classed as functional.
For experiment [18], the target named is T7, Kappa-type opioid receptor. Kind of experiment: kappa opioid receptor blockers, cell-based, luminescence, beta-arrestin, SAR follow-up (AID 2285). Type of experiment: functional.
Experiment [19] concerns BJ. In words: BJ-TERT fibroblast viability loss – cell-based, RAS-independent, luminescence, dose response (AID 1933). The experiment is classed as functional. Particulars: Homo sapiens.
In experiment [20] the test system is BJ. Kind of experiment: cells. Type of experiment: functional, cell-based. Particulars: Homo sapiens.
Experiment [21] concerns BJ. Kind of experiment: BJ-TERT-LT-ST fibroblast viability loss – cell-based, RAS-independent, luminescence, dose response (AID 1935).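 Also: BJ fibroblasts immortalized with TERT plus LT and ST oncogenes.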 The experiment is classed as functional. Particulars: Homo sapiens.
Experiment [22] in a line: DRD fibroblast viability loss – cell-based, non-viral oncogenic, luminescence, dose response (AID 1934). The experiment is classed as functional. Particulars: Homo sapiens.
In experiment [23] the test system is CHO. Kind of experiment: CHO cell viability loss, potency – luminescence, cytotoxicity control for TLR9-MyD88 binding inhibitor project, dose response (AID 588339).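 Also: CHO cells stably coexpressing TLR9 and MyD88 fusions from primary screen; compound exposure lasted 48 hours before viability readout.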 Type of experiment: functional, cell-based, hamster. To be noted: Cricetulus griseus.
Experiment [24] concerns the target Beta Lactamase (Pseudomonas aeruginosa, UniProt Q932Y6). In words: BLA reporter interference, concentration series – BLA reporter cells, FRET fluorescence, artefact control for TLR9-MyD88 binding inhibitor project, dose response (AID 588341).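 Also: cell based assay in CHO-K1 cells stably expressing beta-lactamase.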 The experiment is classed as cell-based.
Experiment [25] addresses T8, Short transient receptor potential channel 4 (Mus musculus, UniProt Q9QUQ5).
T8 sequence (Q9QUQ5 whole entry): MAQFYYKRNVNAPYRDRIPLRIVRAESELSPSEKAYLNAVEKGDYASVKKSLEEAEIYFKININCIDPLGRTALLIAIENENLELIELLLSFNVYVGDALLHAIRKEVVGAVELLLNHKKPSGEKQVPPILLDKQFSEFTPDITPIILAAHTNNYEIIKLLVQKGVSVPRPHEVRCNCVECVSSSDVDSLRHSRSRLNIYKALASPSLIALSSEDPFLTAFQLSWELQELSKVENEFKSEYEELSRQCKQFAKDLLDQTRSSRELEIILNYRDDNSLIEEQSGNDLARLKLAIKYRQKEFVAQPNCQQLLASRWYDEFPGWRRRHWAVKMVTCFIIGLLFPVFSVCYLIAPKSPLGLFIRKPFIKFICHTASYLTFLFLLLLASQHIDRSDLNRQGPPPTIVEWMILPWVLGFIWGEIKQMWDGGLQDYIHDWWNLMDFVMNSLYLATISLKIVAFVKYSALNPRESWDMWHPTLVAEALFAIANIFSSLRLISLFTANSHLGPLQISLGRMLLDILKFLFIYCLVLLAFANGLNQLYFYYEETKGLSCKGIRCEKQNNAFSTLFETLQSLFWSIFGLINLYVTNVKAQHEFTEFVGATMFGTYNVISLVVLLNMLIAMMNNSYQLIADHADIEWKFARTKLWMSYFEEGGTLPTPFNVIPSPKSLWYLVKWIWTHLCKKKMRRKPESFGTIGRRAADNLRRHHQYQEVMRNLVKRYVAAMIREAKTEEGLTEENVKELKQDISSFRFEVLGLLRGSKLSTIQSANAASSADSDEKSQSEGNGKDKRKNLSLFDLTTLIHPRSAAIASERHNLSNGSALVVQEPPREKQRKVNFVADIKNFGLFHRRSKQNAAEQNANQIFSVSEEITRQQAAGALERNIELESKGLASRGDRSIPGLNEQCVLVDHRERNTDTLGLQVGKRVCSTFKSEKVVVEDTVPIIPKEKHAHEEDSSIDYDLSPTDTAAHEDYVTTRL
Kind of experiment: block of DAMGO-driven TRPC4 calcium entry – cell-based, HEK293 TRPC4/mu-opioid, Fluo-4 calcium, dose response (AID 434942).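 Also: potency of inhibitors blocking the TRPC4 calcium response.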 Type of experiment: functional.

Experiment [26] concerns the target Intestinal-type alkaline phosphatase (Homo sapiens, UniProt P09923). In words: human intestinal alkaline phosphatase activators, dose response, biochemical, luminescence, uHTS hits (AID 463120). Type of experiment: functional.
Experiment [27] concerns the target T8, Short transient receptor potential channel 4. Kind of experiment: calcium entry via TRPC4 opening agents – cell-based, HEK293 TRPC4/mu-opioid, Fluo-4 calcium, dose response (AID 434937). Type of experiment: functional.

T7 sequence (P41145 whole entry): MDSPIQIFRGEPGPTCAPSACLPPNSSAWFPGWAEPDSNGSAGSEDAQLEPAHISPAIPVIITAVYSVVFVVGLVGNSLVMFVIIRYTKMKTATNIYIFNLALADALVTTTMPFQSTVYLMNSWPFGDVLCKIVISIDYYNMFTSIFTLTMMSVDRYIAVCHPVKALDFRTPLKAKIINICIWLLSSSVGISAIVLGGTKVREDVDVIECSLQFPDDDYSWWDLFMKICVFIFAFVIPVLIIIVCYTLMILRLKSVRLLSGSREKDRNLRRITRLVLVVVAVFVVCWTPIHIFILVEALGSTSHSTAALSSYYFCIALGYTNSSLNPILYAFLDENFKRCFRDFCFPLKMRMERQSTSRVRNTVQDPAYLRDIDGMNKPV
T6 sequence (P41143 whole entry): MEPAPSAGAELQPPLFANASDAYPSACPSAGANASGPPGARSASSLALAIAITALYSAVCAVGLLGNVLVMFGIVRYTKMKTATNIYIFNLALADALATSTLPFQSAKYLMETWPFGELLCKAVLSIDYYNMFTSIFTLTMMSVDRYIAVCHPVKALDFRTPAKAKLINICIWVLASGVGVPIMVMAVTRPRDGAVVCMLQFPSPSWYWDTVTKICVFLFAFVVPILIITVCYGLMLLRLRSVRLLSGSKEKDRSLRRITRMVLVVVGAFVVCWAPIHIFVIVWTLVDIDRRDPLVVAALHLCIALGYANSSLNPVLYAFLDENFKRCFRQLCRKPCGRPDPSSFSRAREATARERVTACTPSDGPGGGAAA
T4 sequence (P98170 whole entry): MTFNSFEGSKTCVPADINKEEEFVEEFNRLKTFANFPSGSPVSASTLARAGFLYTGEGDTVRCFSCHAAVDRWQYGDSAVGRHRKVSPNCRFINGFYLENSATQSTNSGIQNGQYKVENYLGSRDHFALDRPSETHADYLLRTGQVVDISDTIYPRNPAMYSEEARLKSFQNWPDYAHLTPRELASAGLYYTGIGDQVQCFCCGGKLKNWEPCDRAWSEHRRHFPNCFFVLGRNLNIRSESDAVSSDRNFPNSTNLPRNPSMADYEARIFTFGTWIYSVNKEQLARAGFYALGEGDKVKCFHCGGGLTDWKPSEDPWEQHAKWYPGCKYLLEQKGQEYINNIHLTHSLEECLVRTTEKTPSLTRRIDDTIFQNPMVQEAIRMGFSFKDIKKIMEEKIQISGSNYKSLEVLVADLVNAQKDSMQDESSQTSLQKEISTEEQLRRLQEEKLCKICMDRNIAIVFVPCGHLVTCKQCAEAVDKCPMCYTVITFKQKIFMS
T5 sequence (P35372 whole entry): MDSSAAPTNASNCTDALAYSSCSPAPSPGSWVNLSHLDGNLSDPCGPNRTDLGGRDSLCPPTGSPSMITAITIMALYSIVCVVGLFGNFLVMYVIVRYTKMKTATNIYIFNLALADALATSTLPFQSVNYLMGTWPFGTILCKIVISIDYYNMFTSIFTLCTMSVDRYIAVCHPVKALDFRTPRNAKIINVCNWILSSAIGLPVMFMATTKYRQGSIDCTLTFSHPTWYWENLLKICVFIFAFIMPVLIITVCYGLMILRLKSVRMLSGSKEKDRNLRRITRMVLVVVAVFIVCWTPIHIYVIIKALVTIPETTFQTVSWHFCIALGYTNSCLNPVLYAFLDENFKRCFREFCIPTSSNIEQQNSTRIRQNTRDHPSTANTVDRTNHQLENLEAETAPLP
Keap1/Nrf2, sequence (Q16236 whole entry): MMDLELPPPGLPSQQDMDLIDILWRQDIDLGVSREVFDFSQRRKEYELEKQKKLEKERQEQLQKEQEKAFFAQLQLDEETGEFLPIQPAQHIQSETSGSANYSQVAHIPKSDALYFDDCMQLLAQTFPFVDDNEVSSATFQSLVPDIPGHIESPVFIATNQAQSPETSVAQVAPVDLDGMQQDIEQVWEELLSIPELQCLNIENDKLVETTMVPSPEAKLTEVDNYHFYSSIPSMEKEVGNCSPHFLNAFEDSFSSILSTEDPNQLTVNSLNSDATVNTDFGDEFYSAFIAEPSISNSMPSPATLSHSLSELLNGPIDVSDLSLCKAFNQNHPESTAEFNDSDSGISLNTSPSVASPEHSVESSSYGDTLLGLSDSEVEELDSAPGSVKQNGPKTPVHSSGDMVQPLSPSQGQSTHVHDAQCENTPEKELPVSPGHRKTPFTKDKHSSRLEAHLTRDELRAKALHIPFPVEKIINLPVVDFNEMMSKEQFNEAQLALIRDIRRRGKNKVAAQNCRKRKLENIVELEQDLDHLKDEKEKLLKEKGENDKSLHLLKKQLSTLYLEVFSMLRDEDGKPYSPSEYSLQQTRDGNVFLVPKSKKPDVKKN
Keap1/Nrf2, sequence (Q14145 whole entry): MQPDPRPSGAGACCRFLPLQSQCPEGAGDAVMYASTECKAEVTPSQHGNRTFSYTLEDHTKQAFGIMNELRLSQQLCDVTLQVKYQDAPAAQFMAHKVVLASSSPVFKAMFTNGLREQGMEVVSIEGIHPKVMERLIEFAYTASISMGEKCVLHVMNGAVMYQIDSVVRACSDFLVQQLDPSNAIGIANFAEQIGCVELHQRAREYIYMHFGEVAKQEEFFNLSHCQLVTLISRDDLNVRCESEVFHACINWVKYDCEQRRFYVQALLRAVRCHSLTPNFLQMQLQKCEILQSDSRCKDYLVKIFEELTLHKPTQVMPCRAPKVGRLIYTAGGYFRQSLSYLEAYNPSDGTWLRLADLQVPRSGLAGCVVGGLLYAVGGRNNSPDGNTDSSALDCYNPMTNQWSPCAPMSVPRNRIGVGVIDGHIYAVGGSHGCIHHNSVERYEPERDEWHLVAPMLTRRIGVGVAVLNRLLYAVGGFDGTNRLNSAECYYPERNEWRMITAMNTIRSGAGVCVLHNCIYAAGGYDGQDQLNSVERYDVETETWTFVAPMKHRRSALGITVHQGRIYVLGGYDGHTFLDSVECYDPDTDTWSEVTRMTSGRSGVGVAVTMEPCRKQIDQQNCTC
Type-1 angiotensin II receptor, sequence (P30556 whole entry): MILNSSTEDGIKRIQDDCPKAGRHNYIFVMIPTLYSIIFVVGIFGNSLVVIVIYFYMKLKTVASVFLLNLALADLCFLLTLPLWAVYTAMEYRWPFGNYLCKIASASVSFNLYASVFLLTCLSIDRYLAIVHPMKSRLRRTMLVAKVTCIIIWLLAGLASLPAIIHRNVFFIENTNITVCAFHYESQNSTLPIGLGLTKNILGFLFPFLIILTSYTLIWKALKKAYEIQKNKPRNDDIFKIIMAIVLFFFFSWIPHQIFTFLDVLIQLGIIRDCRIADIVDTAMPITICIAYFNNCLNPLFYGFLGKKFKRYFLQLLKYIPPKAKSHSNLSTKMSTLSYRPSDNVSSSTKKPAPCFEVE
Beta-galactosidase, sequence (Q8VNN2 whole entry): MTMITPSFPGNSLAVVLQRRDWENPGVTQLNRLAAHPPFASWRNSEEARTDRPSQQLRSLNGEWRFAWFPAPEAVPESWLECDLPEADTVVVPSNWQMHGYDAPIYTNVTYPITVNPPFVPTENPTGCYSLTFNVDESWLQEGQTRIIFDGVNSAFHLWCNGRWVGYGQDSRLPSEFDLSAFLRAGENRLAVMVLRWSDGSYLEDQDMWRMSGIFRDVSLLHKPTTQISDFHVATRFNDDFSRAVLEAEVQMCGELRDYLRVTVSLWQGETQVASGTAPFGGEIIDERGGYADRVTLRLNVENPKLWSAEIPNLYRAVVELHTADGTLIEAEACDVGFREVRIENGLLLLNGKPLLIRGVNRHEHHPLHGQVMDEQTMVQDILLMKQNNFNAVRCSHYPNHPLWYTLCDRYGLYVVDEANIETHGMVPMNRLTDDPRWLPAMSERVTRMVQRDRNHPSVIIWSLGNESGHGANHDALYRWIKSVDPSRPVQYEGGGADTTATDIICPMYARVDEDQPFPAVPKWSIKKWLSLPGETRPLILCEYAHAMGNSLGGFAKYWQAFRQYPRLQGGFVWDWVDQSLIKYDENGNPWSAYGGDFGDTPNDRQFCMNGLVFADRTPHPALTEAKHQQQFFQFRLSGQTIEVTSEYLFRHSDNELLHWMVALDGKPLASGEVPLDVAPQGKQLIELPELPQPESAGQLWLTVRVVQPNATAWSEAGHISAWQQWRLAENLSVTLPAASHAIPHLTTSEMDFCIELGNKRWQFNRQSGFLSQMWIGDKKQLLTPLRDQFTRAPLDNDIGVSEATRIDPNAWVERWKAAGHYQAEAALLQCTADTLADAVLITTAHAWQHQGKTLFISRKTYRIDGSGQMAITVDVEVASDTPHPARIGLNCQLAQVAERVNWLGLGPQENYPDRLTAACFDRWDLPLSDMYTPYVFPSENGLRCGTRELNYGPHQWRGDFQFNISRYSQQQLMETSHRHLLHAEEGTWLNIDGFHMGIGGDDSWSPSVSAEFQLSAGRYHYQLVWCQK
Beta Lactamase, sequence (Q932Y6 whole entry): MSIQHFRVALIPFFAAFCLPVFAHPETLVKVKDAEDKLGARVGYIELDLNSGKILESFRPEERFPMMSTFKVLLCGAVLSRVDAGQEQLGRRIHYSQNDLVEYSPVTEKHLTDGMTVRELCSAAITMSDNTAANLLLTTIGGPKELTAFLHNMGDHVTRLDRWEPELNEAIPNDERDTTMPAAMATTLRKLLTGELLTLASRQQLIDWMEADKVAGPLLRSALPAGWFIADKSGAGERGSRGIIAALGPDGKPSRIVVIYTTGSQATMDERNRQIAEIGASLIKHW
FAD-linked sulfhydryl oxidase ALR, sequence (P55789 whole entry): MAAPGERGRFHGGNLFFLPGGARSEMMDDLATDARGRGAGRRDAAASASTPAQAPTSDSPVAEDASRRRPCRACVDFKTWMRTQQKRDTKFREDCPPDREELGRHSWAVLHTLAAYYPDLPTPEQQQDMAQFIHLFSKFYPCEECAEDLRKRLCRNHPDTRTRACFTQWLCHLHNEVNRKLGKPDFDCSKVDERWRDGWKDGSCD

With `O=C1Nc2ccc(Br)cc2/C1=N/N=C/C1=C(N2CCOCC2)C(=C\c2ccccc2)/CC1`, the EC50 in [1] was > 40 µM (inactive); in experiment [3] it was 9.88 µM (active); in experiment [4], 11.4 µM (active). Moreover, the IC50 in experiment [2] is on record as > 40 µM (not active).

`COc1ccc(Nc2nc(-c3cccnc3)nc3ccccc23)cn1`: the figures for the half-maximal effective concentration (EC50) in [5] and in [6] were 12.4 µM (active) and 8.22 µM (active), respectively. For the same compound, the AC50 in experiment [7] is > 52 µM (inactive).

For the compound `CSc1cccc(NC(=O)CN2C(=O)c3ccccc3S2(=O)=O)c1`, the IC50 in [8] was 5.87 µM (active); in [9], > 100 µM (inactive); in experiment [10] it was > 100 µM (not active). In [11], the half-maximal activity concentration (AC50) is 2.37 µM (active).

Consider `COc1ccc(S(=O)(=O)NCc2ccc(C(=O)N3CCN(Cc4ccccc4)CC3)cc2)cc1`, for which the EC50 in experiment [12], in [13] and in experiment [16] was > 32 µM (inactive) in each case. The IC50 was > 32 µM (inactive) in [14], > 32 µM (inactive) in experiment [15], > 32 µM (inactive) in experiment [17] and > 10 µM (inactive) in experiment [18].

Regarding `O=[N+]([O-])c1ccccc1S(=O)(=O)N1CCCCC1`, the IC50 in [9] is > 100 µM (inactive); in [10], > 100 µM (not active).

Regarding `Cc1ccc(Cl)c(NC(=O)COC(=O)c2ccccc2C(=O)c2ccc(Cl)c([N+](=O)[O-])c2)c1Cl`, the EC50 in experiment [19] is 2.71 µM (active); in experiment [20], 16.8 µM (inconclusive); in experiment [21] it was 3.87 µM (inconclusive); in experiment [22], 7.58 µM (active). Besides, the values for the IC50 in [23] and in experiment [24] were 12.6 µM (inactive) and > 49.8 µM (inactive), respectively.

Take `Cc1cccc(NC(=S)NNc2ncc(C(F)(F)F)cc2Cl)c1`: the EC50 in experiment [1] was > 40 µM (inactive). The IC50 in experiment [2] was 13.1 µM (active).

Regarding `O=C(NC(NC(=S)Nc1ccc(F)cc1)C(Cl)(Cl)Cl)OCc1ccccc1` (centres undefined), the EC50 in experiment [12], in [13] and in [16] was > 32 µM (inactive) throughout. For the same compound, the IC50 is 6.02 µM (active) in experiment [14], > 32 µM (inactive) in experiment [15], > 32 µM (inactive) in [17] and > 10 µM (inactive) in experiment [18].

With `COc1cccc(/C=C/C(=O)OCC(=O)NC(=O)NC2CCCC2)c1`, in experiment [7], the AC50 is > 52 µM (inactive).

`C/C(=N/NC(=O)c1ccc(Cn2cccn2)o1)c1cccc(NC(=O)c2ccncc2)c1`: the values for the EC50 in experiment [25], in experiment [26] and in [27] were 3.76 µM (active), > 100 µM (inactive) and 5.31 µM (active), respectively.
